From patent US10864211B2, “Hydroxy isoxazole compounds useful as GPR120 agonists” (Merck Sharp & Dohme Corp., priority 2016, dated 2020)
Structures can show the parent of a compound that is named as a salt.

What follows are compounds tested against T1, rat GPR120 (Rattus norvegicus, UniProt Q2AC31) (assay: Rat GPR120 IP1 assay (inositol phosphate turnover)). Conditions: IP1 accumulation in HEK293 cells stably expressing rat GPR120.
T1 construct: expressed in transfected cells; host or cells: HEK293
T1 sequence (Q2AC31 1-361): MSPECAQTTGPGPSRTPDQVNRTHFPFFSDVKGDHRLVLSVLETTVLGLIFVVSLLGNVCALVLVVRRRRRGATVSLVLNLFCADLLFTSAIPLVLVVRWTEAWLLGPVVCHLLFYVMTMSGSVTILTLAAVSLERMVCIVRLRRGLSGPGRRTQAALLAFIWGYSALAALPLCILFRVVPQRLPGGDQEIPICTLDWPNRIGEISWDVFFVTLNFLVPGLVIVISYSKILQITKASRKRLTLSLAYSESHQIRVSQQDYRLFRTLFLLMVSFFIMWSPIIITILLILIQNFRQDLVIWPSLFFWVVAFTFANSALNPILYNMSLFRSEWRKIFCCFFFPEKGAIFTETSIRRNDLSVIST
Type: cell-based
Excerpt: The binding of small molecule agonists to the G-protein-coupled receptor GPR120 activates phospholipase C, and leads to the generation of inositol 1,4,5-trisphosphate (InsP3 or IP3). IP3 is subsequently de-phosphorylated to IP1, which accumulates in cells and is stable in the presence of lithium chloride.
In the present method, agonist-induced activation of the human and rat GPR120 receptor was monitored by measuring the accumulation of IP1 in CHO-K1 cells that were stably expressing the short form of human GPR120 (Accession #NM_001195755) or HEK293 cells stably expressing rat GPR120 (Accession #NM_001047088). Following agonist addition, GPR120 activation and subsequent accumulation of IP1 was measured using a homogeneous Time Resolved Fluorescence-based ELISA commercially available from CisBio (IP-one ELISA Kit). The IP-One ELISA was a competitive immunoassay which uses IP1 labeled with […] and a terbium cryptate-labeled anti-IP1 monoclonal antibody. […] The signal loss was then back calculated to IP1 concentration using an IP1 standard curve. Determination of IP1 concentration was a direct measure of GPR120 activation and was used to determine compound potency (EC50).
Human GPR120 stable cell-lines were generated in CHO cells. The expression plasmids were transfected using lipofectamine (Life Technologies) following manufacturer's instructions. Stable cell-lines were generated following drug selection and single cell cloning. Rat GPR120 stable cell-lines were generated in HEK cells using the Jump-In™ cell engineering platform (Life Technologies) following manufacturer's instructions. Stable cell-lines were generated following drug selection and single cell cloning.
The assay was performed in 384-well format. CHO cells stably expressing human GPR120 were plated at 20,000 cells per well in growth medium (DMEM/F12, 10% fetal calf serum). HEK293 cells stably expressing rat GPR120 were plated at […] per well in growth medium (DMEM, 10% fetal calf serum). Cell plates were then incubated 16 hours at 37 degrees in a 5% CO2 incubator. Measurement of Inositol Phosphate Turnover (IP1) was performed using the CisBio IP-One kit (Part number 62IPAPEB). After the 16 hour incubation, the growth media was removed by centrifugation using the BlueWasher (AusWasher GUI Ver. v1.0.1.8) Protocol #21-“Light Dry” and 10 μl of stimulation buffer (prepared as described in the kit) was added to each well. In a separate plate, compounds were diluted in DMSO (200-fold over the final concentration in the assay well) and 50 nl was acoustically transferred to the appropriate well in the assay cell plate. The plates were then incubated for 60 minutes at 37 degrees in a 5% CO2 incubator. 10 μl of detection buffer (also prepared as described in the IP-One kit) was added to each well and the plates were incubated at room temperature for 60 minutes in the dark. The plates were then read in a Perkin ElmerEnVision or equivalent reader able to measure FRET. Fluorescent ratio of emission at 665 and 620 nm was then converted to the IP1 concentration by back calculating from an IP1 standard curve prepared at the time of the assay. The data was normalized to % activity using a reference compound, and the EC50 values were determined using a standard 4-parameter fit.
Oc1cc(-c2ccc(O[C@H]3C[C@H](c4ccc(F)cc4)C3)cc2)on1 [Example 12, 5-(4-{[trans-3-(4-fluorophenyl)cyclobutyl]oxy}phenyl)isoxazol-3-ol] gave an EC50 of 1.5 nM.

These compounds were tested against T2, human GPR120 (Homo sapiens, UniProt Q5NUL3) (assay: Human GPR120 IP1 assay (inositol phosphate turnover)). Conditions: IP1 accumulation in CHO-K1 cells stably expressing the short form of human GPR120.
T2 construct: expressed in transfected cells; host or cells: CHO-K1
T2 sequence (Q5NUL3 1-361): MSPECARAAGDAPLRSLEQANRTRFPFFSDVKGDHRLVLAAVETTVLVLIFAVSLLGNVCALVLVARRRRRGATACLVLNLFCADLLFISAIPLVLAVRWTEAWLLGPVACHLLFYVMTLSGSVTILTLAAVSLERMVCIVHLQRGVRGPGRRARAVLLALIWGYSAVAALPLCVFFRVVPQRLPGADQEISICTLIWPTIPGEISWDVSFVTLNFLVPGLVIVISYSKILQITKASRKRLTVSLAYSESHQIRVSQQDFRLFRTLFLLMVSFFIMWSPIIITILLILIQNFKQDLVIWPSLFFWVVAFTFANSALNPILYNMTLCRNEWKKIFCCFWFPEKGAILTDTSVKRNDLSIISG
Type: cell-based
Procedure, shortened: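 Human receptor (short form) was stably expressed in CHO-K1 cells and rat receptor in HEK293 cells. Cells were exposed to compound for 60 min at 37° C in kit stimulation buffer. IP1 was quantified by HTRF 665/620 nm ratio against a standard curve, normalized to a reference compound, with EC50 from 4-parameter fits.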
In the case of Cc1nc(C(F)(F)F)c(CO[C@H]2C[C@@H](Oc3ccc(-c4cc(O)no4)cn3)C2)s1 [Example 75, 5-(3-hydroxyisoxazol-5-yl)-2-[(cis-3-{[2-methyl-4-(trifluoromethyl)-1,3-thiazol-5-yl]methoxy}cyclobutyl)oxy] pyridinium trifluoroacetate], the EC50 is reported as 149 nM.
In the case of Oc1cc(-c2ccc(O[C@H]3C[C@@H](COc4ccccc4)C3)nc2)on1 [Example 82, 5-(3-hydroxyisoxazol-5-yl)-2-{[cis-3-(phenoxymethyl)cyclobutyl]oxy}pyridinium chloride], the EC50 is reported as 7.1 nM.
In the case of Oc1cc(-c2cnc(O[C@H]3C[C@@H](COc4ccccc4)C3)cn2)on1 [Example 83, sodium 5-(5-{[cis-3-(phenoxymethyl)cyclobutyl]oxy}pyrazin-2-yl)isoxazol-3-olate], the EC50 is reported as 17 nM.
With Oc1cc(-c2cnc(O[C@H]3C[C@@H](COc4cccc(F)c4)C3)cn2)on1 [Example 84, sodium 5-[5-({cis-3-[(3-fluorophenoxy)methyl]cyclobutyl}oxy)pyrazin-2-yl]isoxazol-3-olate] the EC50 was 12 nM.
Oc1cc(-c2cnc(O[C@H]3C[C@@H](COc4ccccc4F)C3)cn2)on1 [Example 85, sodium 5-[5-({cis-3-[(2-fluorophenoxy)methyl]cyclobutyl}oxy)pyrazin-2-yl]isoxazol-3-olate] was tested, and the EC50 was 25 nM.
CCOc1cc([C@]2(F)C[C@@H](Oc3ccc(-c4cc(O)no4)cn3)C2)ccn1 [Example 86, sodium 5-(6-{[cis-3-(2-ethoxypyridin-4-yl)-3-fluoro-cyclobutyl]oxy}pyridin-3-yl)isoxazol-3-olate] was tested, and the EC50 was 26 nM.
In the case of Oc1cc(-c2ccc(O[C@H]3C[C@](F)(c4ccnc(OC5CC5)c4)C3)nc2)on1 [Example 90], the EC50 is reported as 22 nM.
In the case of CC1[C@@H](Oc2cnc(-c3cc(O)no3)cn2)C[C@H]1c1ccccc1 (stereo partly drawn) [Example 92, 5-(5-{[(1S,3R)-2-methyl-3-phenylcyclobutyl]oxy}pyrazin-2-yl)isoxazol-3-ol], the EC50 is reported as 17 nM.
CC1(c2ccc(Cl)cc2)CC(Oc2cnc(-c3cc(O)no3)cn2)C1 (stereo not shown) [Example 93, 5-(5-{[3-(4-chlorophenyl)-3-methylcyclobutyl]oxy}pyrazin-2-yl)isoxazol-3-ol] gave an EC50 of 215 nM.
For Oc1cc(-c2ccc(O[C@H]3C[C@@](F)(c4ccc(C(F)(F)F)cn4)C3)nc2)on1 [Example 97, 2-(trans-1-fluoro-3-{[5-(3-hydroxyisoxazol-5-yl)pyridin-2-yl]oxy}cyclobutyl)-5-(trifluoromethyl)pyridinium trifluoroacetate], the EC50 was 22 nM.
Work on CCOc1cc([C@]2(F)C[C@H](Oc3ccc(-c4cc(O)no4)cn3)C2)ccn1 [Example 98, Sodium 5-(6-{[trans-3-(2-ethoxypyridin-4-yl)-3-fluorocyclobutyl]oxy}pyridin-3-yl)isoxazol-3-olate] yielded an EC50 of 15 nM.
With CC(C)Oc1cc([C@]2(F)C[C@@H](Oc3ccc(-c4cc(O)no4)cn3)C2)ccn1 [Example 99, sodium 5-[6-({cis-3-fluoro-3-[2-(propan-2-yloxy)pyridin-4-yl]cyclobutyl}oxy)pyridin-3-yl]isoxazol-3-olate] the EC50 was 17 nM.
CC(C)Oc1cc([C@]2(F)C[C@@H](Oc3cnc(-c4cc(O)no4)cn3)C2)ccn1 [Example 100, sodium 5-[5-({cis-3-fluoro-3-[2-(propan-2-yloxy)pyridin-4-yl]cyclobutyl}oxy)pyrazin-2-yl]isoxazol-3-olate] showed an EC50 of 153 nM.
For CC(C)Oc1cc([C@]2(F)C[C@H](Oc3cnc(-c4cc(O)no4)cn3)C2)ccn1 [Example 101, sodium 5-[5-({trans-3-fluoro-3-[2-(propan-2-yloxy)pyridin-4-yl]cyclobutyl}oxy)pyrazin-2-yl]isoxazol-3-olate], the EC50 was 538 nM.
Oc1cc(-c2ccc(O[C@H]3C[C@@](F)(c4ccc(C(F)F)c(F)c4)C3)nc2)on1 [Example 103, 5-[6-({trans-3-[4-(difluoromethyl)-3-fluorophenyl]-3-fluorocyclobutyl}oxy)pyridin-3-yl)isoxazol-3-ol] gave an EC50 of 40 nM.
Oc1cc(-c2ccc(O[C@H]3C[C@@](F)(c4ccc5c(c4)OC(F)(F)O5)C3)nc2)on1 [Example 104, ammonium 5-(6-{[trans-3-(2,2-difluoro-1,3-benzodioxol-5-yl)-3-fluorocyclobutyl]oxy}pyridin-3-yl)isoxazol-3-olate] gave an EC50 of 60 nM.
Oc1cc(-c2cnc(O[C@H]3C[C@@](F)(c4nc5ccccc5s4)C3)cn2)on1 [Example 105, ammonium 5-(5-{[trans-3-(1,3-benzothiazol-2-yl)-3-fluorocyclobutyl]oxy}pyrazin-2-yl)isoxazol-3-olate] showed an EC50 of 237 nM.
Oc1cc(-c2cnc(O[C@H]3C[C@](F)(c4cc(OC(F)(F)F)ccc4F)C3)cn2)on1 [Example 106, 5-[5-({cis-3-fluoro-3-[2-fluoro-5-(trifluoromethoxy)phenyl]cyclobutyl}oxy)pyrazin-2-yl]isoxazol-3-ol] was tested, and the EC50 was 91 nM.
Compound Oc1cc(-c2cnc(O[C@H]3C[C@@](F)(c4cc(C(F)(F)F)ccc4F)C3)cn2)on1 [Example 107, 5-[5-({trans-3-fluoro-3-[2-fluoro-5-(trifluoromethyl)phenyl]cyclobutyl}oxy)pyrazin-2-yl]isoxazol-3-ol] has an EC50 of 215 nM.
With Oc1cc(-c2cnc(O[C@H]3C[C@@](F)(c4ccc(Cl)cc4)C3)cn2)on1 [Example 108, 5-(5-{[trans-3-(4-chlorophenyl)-3-fluorocyclobutyl]oxy}pyrazin-2-yl)isoxazol-3-ol] the EC50 was 14 nM.
Compound Oc1cc(-c2cnc(O[C@H]3C[C@@H](c4ccc(Cl)cc4)C3)nc2)on1 [Example 109, 5-(2-{[cis-3-(4-chlorophenyl)cyclobutyl]oxy}pyrimidin-5-yl)isoxazol-3-ol] has an EC50 of 11 nM.
Work on Oc1cc(-c2cnc(O[C@H]3C[C@@H](c4ccc(F)cc4)C3)nc2)on1 [Example 112, 5-(2-{[cis-3-(4-fluorophenyl)cyclobutyl]oxy}pyrimidin-5-yl)isoxazol-3-ol] yielded an EC50 of 647 nM.
In the case of Oc1cc(-c2cnc(OC3CC(c4ccc5c(c4)OC(F)(F)O5)C3)nc2)on1 (stereo not shown) [Example 113, sodium 5-(2-{[3-(2,2-difluoro-1,3-benzodioxol-5-yl)cyclobutyl]oxy}pyrimidin-5-yl)isoxazol-3-olate], the EC50 is reported as 41 nM.
Cc1ccc([C@H]2C[C@@H](Oc3ncc(-c4cc(O)no4)cn3)C2)c(F)c1 [Example 114, sodium 5-(2-{[cis-3-(2-fluoro-4-methylphenyl)cyclobutyl]oxy}pyrimidin-5-yl)isoxazol-3-olate] was tested, and the EC50 was 191 nM.
